Laboratory results reported in US12123010B2, “Plants having increased tolerance to herbicides” (BASF SE, priority 2017, dated 2024).

How the values were obtained:
[1] = tested on: Transgenic T2 Arabidopsis plants and ARBTH WT MC24 non-transgenic; test: Greenhouse post spray test, injury 14 DAT (Tables ii, iii); format: in vivo, Arabidopsis thaliana; details: Arabidopsis thaliana, 336 h, Table ii; for pest or weed control at 50 g/ha: 50 g ai/ha; for pest or weed control at 100 g/ha: 100 g ai/ha; for pest or weed control at 200 g/ha: 200 g ai/ha;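 for all read-outs here: value is percent injury to the sprayed plants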
[2] = tested on: Transgenic T2 Arabidopsis plants harboring PPO inhibitor tolerance trait; test: Lab based germination assay in 48-well plates (Table i); format: in vivo, Arabidopsis thaliana; details: construct AMATU_PPO2_TP_hemG (Escherichia coli); in comparison to wild type plants
[3] = tested on: Variant PPO Enzyme R128A, F420M (Amaranthus PPO2); format: biochemical; details: variant R128A, F420M vs wild type
[4] = target: Wild Type PPO Enzyme (Amaranthus PPO2, SEQ ID NO: 1) (Amaranthus tuberculatus, UniProt Q0NZW9); test: PPO enzyme assay (recombinant), wild type; format: biochemical
Sequence of Wild Type PPO Enzyme (Amaranthus PPO2, SEQ ID NO: 1) (Q0NZW9 1-534): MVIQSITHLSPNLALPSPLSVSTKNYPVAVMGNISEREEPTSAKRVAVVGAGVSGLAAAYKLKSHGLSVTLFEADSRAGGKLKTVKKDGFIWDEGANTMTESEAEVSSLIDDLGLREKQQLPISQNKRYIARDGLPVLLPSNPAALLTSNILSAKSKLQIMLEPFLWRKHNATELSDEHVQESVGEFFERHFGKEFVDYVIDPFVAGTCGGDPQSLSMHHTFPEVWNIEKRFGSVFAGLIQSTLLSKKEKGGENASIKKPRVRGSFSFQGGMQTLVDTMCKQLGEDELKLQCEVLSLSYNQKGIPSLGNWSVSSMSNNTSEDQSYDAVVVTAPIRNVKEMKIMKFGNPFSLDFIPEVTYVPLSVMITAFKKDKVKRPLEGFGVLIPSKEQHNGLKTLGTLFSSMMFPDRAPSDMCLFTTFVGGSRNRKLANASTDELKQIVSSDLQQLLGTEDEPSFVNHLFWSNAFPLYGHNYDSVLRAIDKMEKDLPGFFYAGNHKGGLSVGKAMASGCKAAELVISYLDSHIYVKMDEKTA

Question: What does the source list for Cn1c(C(F)(F)F)cc(=O)n(-c2nc(Oc3cccnc3OCC(=O)O)c(Cl)cc2F)c1=O [Uracilpyridine 3, 2-[[3-[[3-chloro-5-fluoro-6-[3-methyl-2,6-dioxo-4-(trifluoromethyl)pyrimidin-1-yl]-2-pyridyl]oxy]-2-pyridyl]oxy]acetic acid]?
Answer: pest or weed control at 1 g/ha ([1]; AMATU_PPO2_WT event Q, 1 g ai/ha): 48%; pest or weed control at 5 g/ha ([1]; AMATU_PPO2_WT event Q, 5 g ai/ha): 80%; pest or weed control at 10 g/ha ([1]; AMATU_PPO2_WT event Q, 10 g ai/ha): 100%; pest or weed control at 30 g/ha ([1]; AMATU_PPO2_WT event Q, 30 g ai/ha): 100%; pest or weed control at 1 g/ha ([1]; ARBTH WT MC24 non-transgenic, 1 g ai/ha + 1% MSO): 88%; pest or weed control at 5 g/ha ([1]; ARBTH WT MC24 non-transgenic, 5 g ai/ha + 1% MSO): 100%; pest or weed control at 10 g/ha ([1]; ARBTH WT MC24 non-transgenic, 10 g ai/ha + 1% MSO): 100%; pest or weed control at 30 g/ha ([1]; ARBTH WT MC24 non-transgenic, 30 g ai/ha + 1% MSO): 100%; pest or weed control at 80 g/ha ([1]; ARBTH WT MC24 non-transgenic, 80 g ai/ha + 1% MSO): 100%; pest or weed control at 5 g/ha ([1]; ARBTH_PPO1_S305L_Y426M event O, 5 g ai/ha): 0%; pest or weed control at 10 g/ha ([1]; ARBTH_PPO1_S305L_Y426M event O, 10 g ai/ha): 0%; pest or weed control at 30 g/ha ([1]; ARBTH_PPO1_S305L_Y426M event O, 30 g ai/ha): 49%; pest or weed control at 80 g/ha ([1]; ARBTH_PPO1_S305L_Y426M event O, 80 g ai/ha): 13%; pest or weed control at 1 g/ha ([1]; ARBTH_PPO1_WT event Q, 1 g ai/ha): 10%; pest or weed control at 5 g/ha ([1]; ARBTH_PPO1_WT event Q, 5 g ai/ha): 83%; pest or weed control at 10 g/ha ([1]; ARBTH_PPO1_WT event Q, 10 g ai/ha): 98%; pest or weed control at 30 g/ha ([1]; ARBTH_PPO1_WT event Q, 30 g ai/ha): 100%; Tolerance Factor [2]: 1600

Question: What does the source list for CCOC(=O)COc1ccccc1Oc1nc(-n2c(=O)cc(C(F)(F)F)n(C)c2=O)ccc1Br [Uracilpyridine 6, ethyl 2-[2-[[3-bromo-6-[3-methyl-2,6-dioxo-4-(trifluoromethyl)pyrimidin-1-yl]-2-pyridyl]oxy]phenoxy]acetate]?
Answer: pest or weed control at 50 g/ha ([1]; ALOMY_PPO2_R137L_F438V event F): 0%; pest or weed control at 100 g/ha ([1]; ALOMY_PPO2_R137L_F438V event F): 0%; pest or weed control at 200 g/ha ([1]; ALOMY_PPO2_R137L_F438V event F): 18%; pest or weed control at 50 g/ha ([1]; ALOMY_PPO2_R137L_F438V event G): 0%; pest or weed control at 100 g/ha ([1]; ALOMY_PPO2_R137L_F438V event G): 0%; pest or weed control at 200 g/ha ([1]; ALOMY_PPO2_R137L_F438V event G): 0%; pest or weed control at 50 g/ha ([1]; AMATU_PPO2_L397E_F420V event D): 0%; pest or weed control at 100 g/ha ([1]; AMATU_PPO2_L397E_F420V event D): 0%; pest or weed control at 200 g/ha ([1]; AMATU_PPO2_L397E_F420V event D): 8%; pest or weed control at 50 g/ha ([1]; AMATU_PPO2_L397E_F420V event L): 0%; pest or weed control at 100 g/ha ([1]; AMATU_PPO2_L397E_F420V event L): 0%; pest or weed control at 200 g/ha ([1]; AMATU_PPO2_L397E_F420V event L): 15%; pest or weed control at 50 g/ha ([1]; AMATU_PPO2_R128A_F420V event A): 0%; pest or weed control at 100 g/ha ([1]; AMATU_PPO2_R128A_F420V event A): 43%; pest or weed control at 200 g/ha ([1]; AMATU_PPO2_R128A_F420V event A): 30%; pest or weed control at 50 g/ha ([1]; AMATU_PPO2_R128A_F420V event D): 0%; pest or weed control at 100 g/ha ([1]; AMATU_PPO2_R128A_F420V event D): 38%; pest or weed control at 200 g/ha ([1]; AMATU_PPO2_R128A_F420V event D): 28%

Question: For CCOC(=O)COc1ccc(F)cc1Oc1nc(-n2c(=O)cc(C(F)(F)F)n(C)c2=O)c(F)cc1Cl [Uracilpyridine 7, ethyl 2-[2-[[3-chloro-5-fluoro-6-[3-methyl-2,6-dioxo-4-(trifluoromethyl)pyrimidin-1-yl]-2-pyridyl]oxy]-4-fluoro-phenoxy]acetate], which pest or weed control at 50 g/ha ([1]; ALOMY_PPO2_R137L_F438V event F) is on record?
Answer: 0%

Question: And the pest or weed control at 100 g/ha ([1]; ALOMY_PPO2_R137L_F438V event F)?
Answer: 18%

Question: And the pest or weed control at 200 g/ha ([1]; ALOMY_PPO2_R137L_F438V event F)?
Answer: 13%

Question: And the pest or weed control at 50 g/ha ([1]; ALOMY_PPO2_R137L_F438V event G)?
Answer: 0%

Question: And the pest or weed control at 100 g/ha ([1]; ALOMY_PPO2_R137L_F438V event G)?
Answer: 0%

Question: And the pest or weed control at 200 g/ha ([1]; ALOMY_PPO2_R137L_F438V event G)?
Answer: 8%

Question: And the pest or weed control at 50 g/ha ([1]; AMATU_PPO2_L397E_F420V event D)?
Answer: 0%

Question: And the pest or weed control at 100 g/ha ([1]; AMATU_PPO2_L397E_F420V event D)?
Answer: 0%

Question: What about the pest or weed control at 200 g/ha ([1]; AMATU_PPO2_L397E_F420V event D) of the same molecule?
Answer: 10%

Question: What about the pest or weed control at 50 g/ha ([1]; AMATU_PPO2_L397E_F420V event L) of the same molecule?
Answer: 0%

Question: What about the pest or weed control at 100 g/ha ([1]; AMATU_PPO2_L397E_F420V event L) of the same molecule?
Answer: 0%

Question: And the pest or weed control at 200 g/ha ([1]; AMATU_PPO2_L397E_F420V event L)?
Answer: 33%

Question: And the pest or weed control at 50 g/ha ([1]; AMATU_PPO2_R128A_F420V event A)?
Answer: 13%

Question: And the pest or weed control at 100 g/ha ([1]; AMATU_PPO2_R128A_F420V event A)?
Answer: 50%

Question: And the pest or weed control at 200 g/ha ([1]; AMATU_PPO2_R128A_F420V event A)?
Answer: 70%

Question: And the pest or weed control at 50 g/ha ([1]; AMATU_PPO2_R128A_F420V event D)?
Answer: 33%

Question: And the pest or weed control at 100 g/ha ([1]; AMATU_PPO2_R128A_F420V event D)?
Answer: 65%

Question: And the pest or weed control at 200 g/ha ([1]; AMATU_PPO2_R128A_F420V event D)?
Answer: 75%

Question: With CCOC(=O)COc1ccccc1Oc1nc(-n2c(=O)c(C)c(C(F)(F)F)n(C)c2=O)c(F)cc1Cl [Uracilpyridine 12, ethyl 2-[2-[[3-chloro-6-[3,5-dimethyl-2,6-dioxo-4-(trifluoromethyl)pyrimidin-1-yl]-5-fluoro-2-pyridyl]oxy]phenoxy]acetate] as the molecule, how does the “Tolerance Factor (R/S)” value [3] read?
Answer: 536

Question: And the IC50 [4]?
Answer: 0.212 nM

Question: How did the “Tolerance Factor (R/S)” value [3] turn out when C=CCOC(=O)COc1ncccc1Oc1nc(-n2c(=O)cc(C(F)(F)F)n(C)c2=O)c(F)cc1Cl [Uracilpyridine 13, allyl 2-[[3-[[3-chloro-5-fluoro-6-[3-methyl-2,6-dioxo-4-(trifluoromethyl)pyrimidin-1-yl]-2-pyridyl]oxy]-2-pyridyl]oxy]acetate] was run?
Answer: 421

Question: And the IC50 [4]?
Answer: 0.218 nM

Question: What does the source list for C#CCOC(=O)COc1ncccc1Oc1nc(-n2c(=O)cc(C(F)(F)F)n(C)c2=O)c(F)cc1Cl [Uracilpyridine 14, prop-2-ynyl 2-[[3-[[3-chloro-5-fluoro-6-[3-methyl-2,6-dioxo-4-(trifluoromethyl)pyrimidin-1-yl]-2-pyridyl]oxy]-2-pyridyl]oxy]acetate]?
Answer: Tolerance Factor (R/S) [3]: 675; IC50 [4]: 0.234 nM

Question: With Cn1c(C(F)(F)F)cc(=O)n(-c2nc(Oc3cccnc3OCC(=O)OCC3CC3)c(Cl)cc2F)c1=O [Uracilpyridine 15, cyclopropylmethyl 2-[[3-[[3-chloro-5-fluoro-6-[3-methyl-2,6-dioxo-4-(trifluoromethyl)pyrimidin-1-yl]-2-pyridyl]oxy]-2-pyridyl]oxy]acetate] as the molecule, how does the “Tolerance Factor (R/S)” value [3] read?
Answer: 195

Question: What about the IC50 [4] of the same molecule?
Answer: 0.22 nM

Question: How did the “Tolerance Factor (R/S)” value [3] turn out when Cn1c(C(F)(F)F)cc(=O)n(-c2nc(Oc3cccnc3OCC(=O)OCC(F)F)c(Cl)cc2F)c1=O [Uracilpyridine 16, 2,2-difluoroethyl 2-[[3-[[3-chloro-5-fluoro-6-[3-methyl-2,6-dioxo-4-(trifluoromethyl)pyrimidin-1-yl]-2-pyridyl]oxy]-2-pyridyl]oxy]acetate] was run?
Answer: 508

Question: And the IC50 [4]?
Answer: 0.175 nM

Question: How did the “Tolerance Factor (R/S)” value [3] turn out when CC(C)COC(=O)COc1ncccc1Oc1nc(-n2c(=O)cc(C(F)(F)F)n(C)c2=O)c(F)cc1Cl [Uracilpyridine 17, isobutyl 2-[[3-[[3-chloro-5-fluoro-6-[3-methyl-2,6-dioxo-4-(trifluoromethyl)pyrimidin-1-yl]-2-pyridyl]oxy]-2-pyridyl]oxy]acetate] was run?
Answer: 406

Question: What about the IC50 [4] of the same molecule?
Answer: 0.113 nM

Question: With CCOC(=O)COC(=O)COc1ncccc1Oc1nc(-n2c(=O)cc(C(F)(F)F)n(C)c2=O)c(F)cc1Cl [Uracilpyridine 18, (2-ethoxy-2-oxo-ethyl) 2-[[3-[[3-chloro-5-fluoro-6-[3-methyl-2,6-dioxo-4-(trifluoromethyl)pyrimidin-1-yl]-2-pyridyl]oxy]-2-pyridyl]oxy]acetate] as the molecule, how does the “Tolerance Factor (R/S)” value [3] read?
Answer: 753

Question: And the IC50 [4]?
Answer: 0.154 nM

Question: COCCOC(=O)COc1ncccc1Oc1nc(-n2c(=O)cc(C(F)(F)F)n(C)c2=O)c(F)cc1Cl [Uracilpyridine 19, 2-methoxyethyl 2-[[3-[[3-chloro-5-fluoro-6-[3-methyl-2,6-dioxo-4-(trifluoromethyl)pyrimidin-1-yl]-2-pyridyl]oxy]-2-pyridyl]oxy]acetate] was tested. Which “Tolerance Factor (R/S)” value [3] did it give?
Answer: 503

Question: And the IC50 [4]?
Answer: 0.248 nM
